13 molecules from patent publication US20100093865A1, “SULPHUR-LINKED COMPOUNDS FOR TREATING OPHTHALMIC DISEASES AND DISORDERS” (Acucela, Inc., priority 2008, published 2010) can be followed below.

The target in one assay is T1, isomerase (Mus musculus, UniProt Q91ZQ5).
T1 construct: from tissue; host or cells: eye of living mice (CD-1; Balb/c also mentioned)
T1 sequence (Q91ZQ5 1-533): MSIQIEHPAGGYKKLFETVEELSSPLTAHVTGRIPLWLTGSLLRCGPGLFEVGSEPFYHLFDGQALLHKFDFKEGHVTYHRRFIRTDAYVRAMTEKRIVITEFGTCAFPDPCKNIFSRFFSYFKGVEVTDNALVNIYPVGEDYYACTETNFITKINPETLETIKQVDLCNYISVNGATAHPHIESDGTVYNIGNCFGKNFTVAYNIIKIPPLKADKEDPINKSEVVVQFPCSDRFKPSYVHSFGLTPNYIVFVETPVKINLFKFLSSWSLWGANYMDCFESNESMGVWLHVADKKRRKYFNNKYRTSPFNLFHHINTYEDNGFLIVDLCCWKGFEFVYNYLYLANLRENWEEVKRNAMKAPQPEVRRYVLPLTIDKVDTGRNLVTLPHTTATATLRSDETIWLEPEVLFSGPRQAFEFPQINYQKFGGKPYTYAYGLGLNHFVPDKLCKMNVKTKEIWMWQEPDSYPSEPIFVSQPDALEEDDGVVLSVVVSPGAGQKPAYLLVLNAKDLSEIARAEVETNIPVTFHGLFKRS
Kind of assay: In vivo murine isomerase assay. The note with it: oral, mice, 11-cis-retinal (oxime) recovery after photobleaching. On the procedure:
The capability of sulphur-linked compounds to inhibit isomerase is determined by an in vivo murine isomerase assay. Brief exposure of the eye to intense light (“photobleaching” of the visual pigment or simply “bleaching”) is known to photo-isomerize almost all 11-cis-retinal in the retina. The recovery of 11-cis-retinal after bleaching can be used to estimate the activity of isomerase in vivo. Delayed recovery, as represented by lower 11-cis-retinal oxime levels, indicates inhibition of isomerization reaction. […] See also Deigner et al., Science, 244: 968-71 (1989); Gollapalli et al., Biochim Biophys Acta. 1651: 93-101 (2003); Parish, et al., Proc. Natl. Acad. Sci. USA, 14609-13 (1998); Radu, et al., Proc Natl Acad Sci USA 101: 5928-33 (2004).
About six-week old dark-adapted CD-1 (albino) male mice are orally gavaged with compound (0.01-25 mg/kg) dissolved in an appropriate amount of oil (about 100 μl corn oil containing 10% ethanol, at least five animals per group). Mice are gavaged with the sulphur-linked compounds described in the present disclosure. After about 2-24 hours in the dark, the mice are exposed to photobleaching of about 5,000 lux of white light for 10 minutes. The mice are allowed to recover for about 2 hours in the dark. The animals are then sacrificed by carbon dioxide inhalation. Retinoids are extracted from the eye and the regeneration of 11-cis-retinal is assessed at various time intervals.
All steps are performed in darkness with minimal redlight illumination (low light darkroom lights and red filtered flashlights for spot illumination as needed) (see, e.g., Maeda et al., J. Neurochem 85:944-956, 2003; Van Hooser et al., J Biol Chem 277:19173-82, 2002). After the mice are sacrificed, the eyes are immediately removed and placed in liquid nitrogen for storage.
The eyes are placed in about 500 μL of bis-tris propane buffer (10 mM, pH ˜7.3) and about 20 μL of 0.8M hydroxylamine (pH-7.3). The eyes are cut up into small pieces with small iris scissors and then thoroughly homogenized at 30000 rpm with a mechanical homogenizer (Polytron PT 1300 D) in the tube until no visible tissue remains. About […] of methanol and about 500 μL of heptane are added to each tube. The tubes are attached to a vortexer so that the contents are mixed thoroughly for about 15 minutes in room temperature. The organic phase is separated from the aqueous phase by centrifugation for about 10 min at 13K rpm, 4° C. 240 μL of the solution from the top layer (organic phase) is removed and transferred to clean 300 μl glass inserts in HPLC vials using glass pipette and the vials are crimped shut tightly.
The samples are analyzed on an Agilent 1100 HPLC system with normal phase column: SILICA (Beckman Coutlier, dp 5 μm, […]). The running method has a flow rate of 1.5 ml/min; solvent components are 15% solvent 1 (1% isopropanol in ethyl acetate), and 85% solvent 2 (100% hexanes). Loading volume for each sample is about 100 μl; detection wavelength is 360 nm. The area under the curve for 11-cis-retinal oxime is calculated by Agilent Chemstation software and recorded manually. Data processing is performed using Prizm software.
[…] control mice (no compound administered) are sacrificed fully dark-adapted and the eye retinoids analyzed. Light (bleached) control mice (no compound administered) are sacrificed and retinoids isolated and analyzed immediately after light treatment.
A dose response in vivo isomerase inhibition study is performed with the compounds of the present disclosure. Male or female mice (such as Balb/c mice) (at least about 8/group) are dosed orally with about 0.01 to 25 mg/kg of the compounds of HCl salts of the compounds in sterile water as solution, and photobleached about 4 hours after dosing. Recovery and retinoid analysis is performed as described above. Dark control mice are vehicle-only treated, sacrificed fully dark adapted without light treatment, and analyzed. […]

Assay [1] has as its target T2, recombinant human RPE65 and LRAT (visual cycle isomerase) (Homo sapiens, UniProt Q16518).
T2 construct: expressed in transfected cells; host or cells: HEK293 cell clone (homogenate); CRALBP made in E. coli TOP10
T2 sequence (Q16518 2-533 limits assumed): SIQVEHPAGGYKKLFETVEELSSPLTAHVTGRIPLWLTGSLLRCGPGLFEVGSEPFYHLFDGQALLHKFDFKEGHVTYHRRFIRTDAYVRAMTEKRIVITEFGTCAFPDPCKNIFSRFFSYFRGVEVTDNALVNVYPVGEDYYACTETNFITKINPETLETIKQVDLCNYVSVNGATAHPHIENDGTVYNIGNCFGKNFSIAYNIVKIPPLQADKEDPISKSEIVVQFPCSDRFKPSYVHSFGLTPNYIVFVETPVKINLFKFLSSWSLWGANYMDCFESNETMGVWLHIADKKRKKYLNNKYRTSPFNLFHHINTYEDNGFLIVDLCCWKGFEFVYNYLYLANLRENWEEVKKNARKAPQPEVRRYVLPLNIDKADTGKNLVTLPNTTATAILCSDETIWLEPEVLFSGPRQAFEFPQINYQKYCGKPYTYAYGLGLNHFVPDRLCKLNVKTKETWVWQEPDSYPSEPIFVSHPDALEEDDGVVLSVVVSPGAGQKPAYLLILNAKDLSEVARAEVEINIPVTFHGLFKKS
Kind of assay: Human in vitro isomerase inhibition assay. It counts as biochemical. On the procedure: The capability of sulphur-linked compounds to inhibit the activity of a visual cycle isomerase was determined in vitro either in a human or bovine-based assay system.
Recombinant human apo cellular retinaldehyde-binding protein (CRALBP) was cloned and expressed according to standard methods in the molecular biology art (see Crabb et al., Protein Science 7:746-57 (1998); Crabb et al., J. Biol. Chem. 263:18688-92 (1988)). Briefly, total RNA was prepared from confluent ARPE19 cells (American Type Culture Collection, Manassas, Va.), cDNA was synthesized using an oligo(dT)12-18 primer, and then DNA encoding CRALBP was amplified by two sequential polymerase chain reactions (see Crabb et al., J. Biol. Chem. 263:18688-92 (1988); Intres, et al., J. Biol. Chem. 269:25411-18 (1994); GenBank Accession No. L34219.1). The PCR product was sub-cloned into pTrcHis2-TOPO TA vector according to the manufacturer's protocol (Invitrogen Inc., Carlsbad, Calif.; catalog no. K4400-01), and then the sequence was confirmed according to standard nucleotide sequencing techniques. Recombinant 6×His-tagged human CRALBP was expressed in One Shot TOP 10 chemically competent E. coli cells (Invitrogen), and the recombinant polypeptide was isolated from E. coli cell lysates by nickel affinity chromatography using nickel (Ni) Sepharose XK16-20 columns for HPLC (Amersham Bioscience, Pittsburgh, Pa.; catalog no. 17-5268-02). The purified 6×His-tagged human CRALBP was dialyzed against 10 mM bis-tris-Propane (BTP) and analyzed by SDS-PAGE. The molecular weight of the recombinant human CRALBP was approximately 39 kDal.
The concentration dependent effect of the compounds disclosed herein on the retinol isomerization reaction were evaluated with a recombinant human enzyme system. […] A homogenate of HEK293 cell clone expressing recombinant human RPE65 and LRAT were the source of the visual enzymes, and exogenous all-trans-retinol (about 20 μM) was used as the substrate. Recombinant human CRALBP (about 80 ug/mL) was added to enhance the formation of 11-cis-retinal. The 200 μL Bis-Tris Phosphate buffer (10 mM, pH 7.2) based reaction mixture also contains 0.5% BSA, and 1 mM NaPPi. In this assay, the reaction was carried out at 37° C. in duplicates for one hour and was terminated by addition of 300 μL methanol. The amount of reaction product, 11-cis-retinol, was measured by HPLC analysis following Heptane extraction of the reaction mixture. […] The ability of the compounds disclosed herein to inhibit isomerization reaction is quantified and the respective IC50 value is determined. Table 2 summarizes the IC50 values of all the compounds of the present disclosure. […] The production of 11-cis-retinol was measured at different doses of compound administration.

On to `CCCCSc1cccc([C@H](O)CCN)c1` [Example 18, (R)-3-amino-1-(3-(butylthio)phenyl)propan-1-ol], for which, on isomerase, the “% Inibition 1.0 mg/kg, 4 h” value was 68.6%.

For the molecule `NC/C=C/c1cccc(S(=O)(=O)CC2CCCCC2)c1` [Example 14, (E)-3-(3-(cyclohexylmethylsulfonyl)phenyl)prop-2-en-1-amine], the “inhibition of 11-cis-retinol production” value in assay [1] is listed as “dose-dependent inhibition”.

Regarding `NCC[C@@H](O)c1cccc(SCC2CCCCC2)c1` [Example 17, (R)-3-amino-1-(3-(cyclohexylmethylthio)phenyl)propan-1-ol], on isomerase, the “% Inibition 1.0 mg/kg, 4 h” value amounted to 33.4%. In assay [1], the “inhibition of 11-cis-retinol production” value was “dose-dependent inhibition”.

Consider `[2H]C1([2H])C([2H])([2H])C([2H])([2H])C([2H])(CSc2cccc(C(O)CCN)c2)C([2H])([2H])C1([2H])[2H]` (centres unmarked) [Example 53, 3-amino-1-(3-((perdeuterocyclohexyl)methylthio)phenyl)propan-1-ol], for which, at isomerase, the “% Inibition 1.0 mg/kg, 4 h” value is recorded as −4.9%.

With `NCCCc1cccc(S(=O)(=O)CC2CCCCC2)c1` [Example 5, 3-(3-(cyclohexylmethylsulfonyl)phenyl)propan-1-amine], at isomerase, the “% Inibition 0.3 mg/kg, 4 h” value came out at 1.1% and the “% Inibition 1.0 mg/kg, 4 h” value was −12.1%. In addition, the “inhibition of 11-cis-retinol production” value in assay [1] is reported as “dose-dependent inhibition”.

Turning to `NCCC(=O)c1cccc(S(=O)(=O)CC2CCCCC2)c1` [Example 10, 3-amino-1-(3-(cyclohexylmethylsulfonyl)phenyl)propan-1-one], the “% Inibition 1.0 mg/kg, 4 h” value at isomerase is recorded as 79.3%.

Turning to `[2H]C([2H])(C1CCCCC1)S(=O)(=O)c1cccc(C(O)CCN)c1` (centres unmarked) [Example 50, 3-amino-1-(3-(cyclohexyldideuteromethylsulfonyl)phenyl)propan-1-ol], the “% Inibition 1.0 mg/kg, 4 h” value at isomerase is given as −1.6%.

Consider `[2H]C([2H])(N)CC(O)c1cccc(SCC2CCCCC2)c1` (centres unmarked) [Example 45, 3-amino-1-(3-(cyclohexylmethylthio)phenyl)-3,3-dideuteropropan-1-ol], for which, at isomerase, the “% Inibition 1.0 mg/kg, 4 h” value is 87.1%.

Consider `NCCC(O)c1cccc(SCC2CCCCC2)c1` (centres unmarked) [Example 8, 3-amino-1-(3-(cyclohexylmethylthio)phenyl)propan-1-ol], for which, at isomerase, the “% Inibition 1.0 mg/kg, 4 h” value was −14.2%.

As for `[2H]C([2H])(Sc1cccc(C(O)CCN)c1)C1CCCCC1` (centres unmarked) [Example 49, 3-amino-1-(3-(cyclohexyldideuteromethylthio)phenyl)propan-1-ol], the “% Inibition 1.0 mg/kg, 4 h” value at isomerase was −8.5%.

On to `NC/C=C/c1cccc(SCC2CCCCC2)c1` [Example 11, (E)-3-(3-(cyclohexylmethylthio)phenyl)prop-2-en-1-amine], for which the “inhibition of 11-cis-retinol production” value in assay [1] is on record as “dose-dependent inhibition”.

With `NCCC(O)c1cccc(S(=O)(=O)CC2CCCCC2)c1` (centres unmarked) [Example 9, 3-amino-1-(3-(cyclohexylmethylsulfonyl)phenyl)propan-1-ol], at isomerase, the “% Inibition 0.3 mg/kg, 4 h” value turned out to be 3.7% and the “% Inibition 1.0 mg/kg, 4 h” value was found to be 20.3%.

Regarding `NCCC(O)c1cccc(SCC2(O)CCCCC2)c1` (centres unmarked) [Example 27, 1-((3-(3-amino-1-hydroxypropyl)phenylthio)methyl)cyclohexanol], the “% Inibition 1.0 mg/kg, 4 h” value at isomerase is listed as 14.8%.
